# Data reported in patent US7919510B2 (priority 2005, dated 2011).
# How the values were obtained:
# [1] = biological target: human endothelial constitutive NOS (eNOS) (Homo sapiens, UniProt P29474); assay: biochemical; conditions: read-out: h-eNOS IC50
# [2] = human, open pilot study; cited from earlier work
SMILES,IC50 [1] [µM],patients with a reduction in the frequency of migraine attack of 50% [2] [%]
CN1CCC(n2cnc3cc(NC(=N)c4cccs4)ccc32)CC1 [Compound 59],6.66,–
C/C1=C2/[N-][C@H]([C@H](CC(N)=O)[C@@]2(C)CCC(=O)NC[C@@H](C)OP(=O)([O-])O[C@H]2[C@@H](O)[C@@H](n3cnc4cc(C)c(C)cc43)O[C@@H]2CO)[C@]2(C)N=C(/C(C)=C3N=C(/C=C4N=C1[C@@H](CCC(N)=O)C\4(C)C)[C@@H](CCC(N)=O)[C@]\3(C)CC(N)=O)[C@@H](CCC(N)=O)[C@]2(C)CC(N)=O.[Co+3].[OH-] [hydroxycobalamin],–,53
